# Laboratory results as given in US20050256085A1, “Fungicidal mixtures” (priority 2002, published 2005).
# Where two headings read alike, the source gives them in different places.
# Assays:
# Plasmopara viticola = test: Persistency against Peronospora of grapevines caused by Plasmopara viticola; type: in vivo; settings: grapevine leaves, inoculated 3 days after spraying
# Phytophthora infestans = type: in vivo; settings: tomato leaves, infected next day, assessed after 6 days
SMILES,Efficacy in % of the untreated control (Plasmopara viticola; 1.9 ppm in the spray liquor) [%],Efficacy in % of the untreated control (Plasmopara viticola; 3.75 ppm in the spray liquor) [%],Efficacy in % of the untreated control (Phytophthora infestans; 1.9 ppm in the spray liquor) [%],Efficacy in % of the untreated control (Phytophthora infestans; 3.75 ppm in the spray liquor) [%],Efficacy in % of the untreated control (Phytophthora infestans; 7.5 ppm in the spray liquor) [%],Efficacy in % of the untreated control (Plasmopara viticola; 0.19 ppm in the spray liquor) [%],Efficacy in % of the untreated control (Plasmopara viticola; 0.375 ppm in the spray liquor) [%],Efficacy in % of the untreated control (Plasmopara viticola; 1.5 ppm in the spray liquor) [%],Efficacy in % of the untreated control (Plasmopara viticola; 3 ppm in the spray liquor) [%],Efficacy in % of the untreated control (Phytophthora infestans; 0.19 ppm in the spray liquor) [%],Efficacy in % of the untreated control (Phytophthora infestans; 0.375 ppm in the spray liquor) [%],Efficacy in % of the untreated control (Phytophthora infestans; 0.75 ppm in the spray liquor) [%],Efficacy in % of the untreated control (Phytophthora infestans; 1.5 ppm in the spray liquor) [%],Efficacy in % of the untreated control (Phytophthora infestans; 3 ppm in the spray liquor) [%]
"N#Cc1sc2c(=O)c3ccccc3c(=O)c=2sc1C#N [II, dithianon]",48,58,0,0,0,,,,,,,,,
CC(C)OC(=O)N[C@H](C(=O)N[C@H](C)c1nc2ccc(F)cc2s1)C(C)C [Ia],,,,,,48,58,79,84,56,67,78,83,89
